For the assay, the target named is human chemokine receptor CXCR7 (Homo sapiens (Human), UniProt P25106). Description: Tango CXCR7-bla U2OS beta-arrestin recruitment assay (beta-lactamase reporter, FRET), antagonism of CXCL12/SDF1-α.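 Also: compounds preincubated 15 min before CXCL12 addition, then 22 h at 37 °C, FRET emission ratio read with CCF4-AM substrate after 2 h.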 Format: cell-based. Particulars: antagonistic effect on CXCR7; Tango CXCR7-bla U2OS cells, CXCL12/SDF1-α at its EC80. Background: Arrestin recruitment assays detect the binding of arrestin to an activated receptor.
Sequence of human chemokine receptor CXCR7 (P25106 whole entry): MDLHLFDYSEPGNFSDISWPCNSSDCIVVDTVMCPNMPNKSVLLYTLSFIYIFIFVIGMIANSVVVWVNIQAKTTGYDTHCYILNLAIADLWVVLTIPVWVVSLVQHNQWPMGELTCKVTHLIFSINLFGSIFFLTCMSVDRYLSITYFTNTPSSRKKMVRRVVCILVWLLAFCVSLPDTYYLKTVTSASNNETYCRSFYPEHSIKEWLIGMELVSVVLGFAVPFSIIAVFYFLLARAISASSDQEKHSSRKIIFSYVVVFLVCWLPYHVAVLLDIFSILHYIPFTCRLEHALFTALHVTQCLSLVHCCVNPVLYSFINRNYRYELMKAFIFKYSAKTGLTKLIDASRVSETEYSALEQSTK

pIC50: −log10 of the molar value.

In turn, `O=C(N[C@@H]1CCN(C2CCCCC2)C[C@H]1C(=O)Nc1cccnc1)c1cc(-c2ccc(F)cc2F)on1` (racemic) [Example 1.067, rac-(3R*,4R*)-1-Cyclohexyl-4-{[5-(2,4-difluoro-phenyl)-isoxazole-3-carbonyl]-amino}-piperidine-3-carboxylic acid pyridin-3-ylamide] showed a pIC50 of 6.50.

Take `Cc1csc(CNC(=O)[C@@H]2CN(C3CCCCC3)CC[C@H]2NC(=O)c2cc(-c3ccc(F)cc3F)on2)n1` (racemic) [Example 1.068, rac-(3R*,4R*)-1-Cyclohexyl-4-{[5-(2,4-difluoro-phenyl)-isoxazole-3-carbonyl]-amino}-piperidine-3-carboxylic acid (4-methyl-thiazol-2-ylmethyl)-amide]: the pIC50 was 6.29.

Take `CN(CCc1ccccn1)C(=O)[C@@H]1CN(C2CCCCC2)CC[C@H]1NC(=O)c1cc(-c2ccc(F)cc2F)on1` (racemic) [Example 1.075, rac-(3R*,4R*)-1-Cyclohexyl-4-{[5-(2,4-difluoro-phenyl)-isoxazole-3-carbonyl]-amino}-piperidine-3-carboxylic acid methyl-(2-pyridin-2-yl-ethyl)-amide]: the pIC50 was 7.36.

Consider `CC(C)(CF)NC(=O)[C@@H]1CN(C2CCCCC2)CC[C@H]1NC(=O)c1cc(-c2ccc(F)cc2F)on1` (racemic) [Example 1.079, rac-(3R*,4R*)-1-Cyclohexyl-4-{[5-(2,4-difluoro-phenyl)-isoxazole-3-carbonyl]-amino}-piperidine-3-carboxylic acid (2-fluoro-1,1-dimethyl-ethyl)-amide], for which the pIC50 is 6.29.

`CC(C)(CS(C)(=O)=O)NC(=O)[C@@H]1CN(C2CCCCC2)CC[C@H]1NC(=O)c1cc(-c2ccc(F)cc2F)on1` (racemic) [Example 1.081, rac-(3R*,4R*)-1-Cyclohexyl-4-{[5-(2,4-difluoro-phenyl)-isoxazole-3-carbonyl]-amino}-piperidine-3-carboxylic acid (2-methanesulfonyl-1,1-dimethyl-ethyl)-amide]: the pIC50 was 6.93.

Compound `CC(C)(CO)NC(=O)[C@@H]1CN(C2CCCCC2)CC[C@H]1NC(=O)c1cc(-c2ccc(F)cc2F)on1` (racemic) [Example 1.088, rac-(3R*,4R*)-1-Cyclohexyl-4-{[5-(2,4-difluoro-phenyl)-isoxazole-3-carbonyl]-amino}-piperidine-3-carboxylic acid (2-hydroxy-1,1-dimethyl-ethyl)-amide] gave a pIC50 of 6.61.

`CN(C)C(=O)[C@@H]1CN(C2CCCCC2)CC[C@H]1NC(=O)c1cn(-c2ccc(F)cc2F)nn1` (racemic) [Example 1.095, rac-(3R*,4R*)-1-Cyclohexyl-4-{[1-(2,4-difluoro-phenyl)-1H-[1,2,3]triazole-4-carbonyl]-amino}-piperidine-3-carboxylic acid dimethylamide] had a pIC50 of 6.60.

As to `CN(C)C(=O)[C@@H]1CN(C2CCCC2)CC[C@H]1NC(=O)c1cn(-c2ccc(F)cc2F)nn1` (racemic) [Example 1.096, rac-(3R*,4R*)-1-Cyclopentyl-4-{[1-(2,4-difluoro-phenyl)-1H-[1,2,3]triazole-4-carbonyl]-amino}-piperidine-3-carboxylic acid dimethylamide], the pIC50 was 6.18. Against the preceding compound, the pIC50 is 0.42 log units lower.

`CN(C)C(=O)[C@@H]1CN(CC2CC2)CC[C@H]1NC(=O)c1cn(-c2ccc(F)cc2F)nn1` (racemic) [Example 1.097, rac-(3R*,4R*)-1-Cyclopropylmethyl-4-{[1-(2,4-difluoro-phenyl)-1H-[1,2,3]triazole-4-carbonyl]-amino}-piperidine-3-carboxylic acid dimethylamide] showed a pIC50 of 6.35. The pIC50 values of the last two compounds are within 0.2 log units of each other.

As for `CN(C)C(=O)[C@@H]1CN(C2CCCC2)CC[C@H]1NC(=O)c1cc(-c2c(F)cc(F)cc2F)on1` (racemic) [Example 1.099, rac-(3R*,4R*)-1-Cyclopentyl-4-{[5-(2,4,6-trifluoro-phenyl)-isoxazole-3-carbonyl]-amino}-piperidine-3-carboxylic acid dimethylamide], the pIC50 was 6.88.

`CN(C)C(=O)[C@@H]1CN(C2CCCCC2)CC[C@H]1NC(=O)c1cc(-c2ccc(F)cc2F)no1` (racemic) [Example 1.102, rac-(3R*,4R*)-1-Cyclohexyl-4-{[3-(2,4-difluoro-phenyl)-isoxazole-5-carbonyl]-amino}-piperidine-3-carboxylic acid dimethylamide] had a pIC50 of 6.95.

Turning to `CN(C)C(=O)[C@@H]1CN(C2CCCC2)CC[C@H]1NC(=O)c1cc(-c2ccc(F)cc2F)no1` (racemic) [Example 1.103, rac-(3R*,4R*)-1-Cyclopentyl-4-{[3-(2,4-difluoro-phenyl)-isoxazole-5-carbonyl]-amino}-piperidine-3-carboxylic acid dimethylamide], the pIC50 is 6.56.

On to `O=C(N[C@@H]1CCN(C2CCCCC2)C[C@H]1C(=O)N1CCC1)c1cn(-c2ccc(F)cc2F)nn1` (racemic) [Example 1.104, rac-1-(2,4-Difluoro-phenyl)-1H-[1,2,3]triazole-4-carboxylic acid [(3R*,4R*)-3-(azetidine-1-carbonyl)-1-cyclohexyl-piperidin-4-yl]-amide], for which the negative logarithm of the IC50 (pIC50) is 6.02.

`O=C(N[C@@H]1CCN(C2CCCCC2)C[C@H]1C(=O)N1CCC1)c1cc(-c2c(F)cc(F)cc2F)on1` (racemic) [Example 1.105, rac-5-(2,4,6-Trifluoro-phenyl)-isoxazole-3-carboxylic acid [(3R*,4R*)-3-(azetidine-1-carbonyl)-1-cyclohexyl-piperidin-4-yl]-amide] had a pIC50 of 6.37.

`O=C(N[C@@H]1CCN(C2CCCC2)C[C@H]1C(=O)N1CCC1)c1cc(-c2c(F)cc(F)cc2F)on1` (racemic) [Example 1.106, rac-5-(2,4,6-Trifluoro-phenyl)-isoxazole-3-carboxylic acid [(3R*,4R*)-3-(azetidine-1-carbonyl)-1-cyclopentyl-piperidin-4-yl]-amide] had a pIC50 of 6.61.

In turn, `O=C(N[C@@H]1CCN(CC2CC2)C[C@H]1C(=O)N1CCC1)c1cc(-c2c(F)cc(F)cc2F)on1` (racemic) [Example 1.107, rac-5-(2,4,6-Trifluoro-phenyl)-isoxazole-3-carboxylic acid [(3R*,4R*)-3-(azetidine-1-carbonyl)-1-cyclopropylmethyl-piperidin-4-yl]-amide] showed a pIC50 of 6.28.

`COCC(C)(C)NC(=O)[C@@H]1CN(C2CCCC2)CC[C@H]1NC(=O)c1cn(-c2ccc(F)cc2F)nn1` (racemic) [Example 1.109, rac-(3R*,4R*)-1-Cyclopentyl-4-{[1-(2,4-difluoro-phenyl)-1H-[1,2,3]triazole-4-carbonyl]-amino}-piperidine-3-carboxylic acid (2-methoxy-1,1-dimethyl-ethyl)-amide] showed a pIC50 of 6.04.

In turn, `COCC(C)(C)NC(=O)[C@@H]1CN(C2CCCCC2)CC[C@H]1NC(=O)c1cc(-c2c(F)cc(F)cc2F)on1` (racemic) [Example 1.111, rac-(3R*,4R*)-1-Cyclohexyl-4-{[5-(2,4,6-trifluoro-phenyl)-isoxazole-3-carbonyl]-amino}-piperidine-3-carboxylic acid (2-methoxy-1,1-dimethyl-ethyl)-amide] showed a pIC50 of 6.48. This pIC50 is 0.44 log units higher than that of the compound before.

With `COCC(C)(C)NC(=O)[C@@H]1CN(C2CCCC2)CC[C@H]1NC(=O)c1cc(-c2c(F)cc(F)cc2F)on1` (racemic) [Example 1.112, rac-(3R*,4R*)-1-Cyclopentyl-4-{[5-(2,4,6-trifluoro-phenyl)-isoxazole-3-carbonyl]-amino}-piperidine-3-carboxylic acid (2-methoxy-1,1-dimethyl-ethyl)-amide], the pIC50 was 6.64.

The compound `COCC(C)(C)NC(=O)[C@@H]1CN(CC2CC2)CC[C@H]1NC(=O)c1cc(-c2c(F)cc(F)cc2F)on1` (racemic) [Example 1.113, rac-(3R*,4R*)-1-Cyclopropylmethyl-4-{[5-(2,4,6-trifluoro-phenyl)-isoxazole-3-carbonyl]-amino}-piperidine-3-carboxylic acid (2-methoxy-1,1-dimethyl-ethyl)-amide] had a pIC50 of 6.93.

For the compound `COCC(C)(C)NC(=O)[C@@H]1CN(C2CCCCC2)CC[C@H]1NC(=O)c1cc(-c2ccc(F)cc2F)no1` (racemic) [Example 1.115, rac-(3R*,4R*)-1-Cyclohexyl-4-{[3-(2,4-difluoro-phenyl)-isoxazole-5-carbonyl]-amino}-piperidine-3-carboxylic acid (2-methoxy-1,1-dimethyl-ethyl)-amide], the pIC50 was 6.25.

Compound `COCC(C)(C)NC(=O)[C@@H]1CN(C2CCCC2)CC[C@H]1NC(=O)c1cc(-c2ccc(F)cc2F)no1` (racemic) [Example 1.116, rac-(3R*,4R*)-1-Cyclopentyl-4-{[3-(2,4-difluoro-phenyl)-isoxazole-5-carbonyl]-amino}-piperidine-3-carboxylic acid (2-methoxy-1,1-dimethyl-ethyl)-amide] had a pIC50 of 6.21. This pIC50 and that of the compound before are within 0.2 log units of each other.

`C[C@@H](NC(=O)[C@@H]1CN(C2CCCCC2)CC[C@H]1NC(=O)c1cc(-c2c(F)cc(F)cc2F)on1)c1ccccn1` (racemic) [Example 1.121, (3R*,4R*)-1-Cyclohexyl-4-{[5-(2,4,6-trifluoro-phenyl)-isoxazole-3-carbonyl]-amino}-piperidine-3-carboxylic acid ((R)-1-pyridin-2-yl-ethyl)-amide] had a pIC50 of 8.40.

`C[C@@H](NC(=O)[C@@H]1CN(C2CCCCC2)CC[C@H]1NC(=O)c1cc(-c2c(F)cc(F)cc2F)on1)c1cnccn1` (racemic) [Example 1.129, (3R*,4R*)-1-Cyclohexyl-4-{[5-(2,4,6-trifluoro-phenyl)-isoxazole-3-carbonyl]-amino}-piperidine-3-carboxylic acid ((R)-1-pyrazin-2-yl-ethyl)-amide]: the pIC50 is 6.98.

`C[C@@H](NC(=O)[C@@H]1CN(C2CCCC2)CC[C@H]1NC(=O)c1cc(-c2c(F)cc(F)cc2F)on1)C1CCC1` (racemic) [Example 1.138, (3R*,4R*)-1-Cyclopentyl-4-{[5-(2,4,6-trifluoro-phenyl)-isoxazole-3-carbonyl]-amino}-piperidine-3-carboxylic acid ((R)-1-cyclobutyl-ethyl)-amide]: the pIC50 is 6.09.

Usually pIC50 stands for the IC50 on a negative log10 scale, so that one unit is a factor of ten. A higher pIC50 goes with a small IC50.

Values taken from US11306078B2, “Piperidine CXCR7 receptor modulators” (IDORSIA PHARMACEUTICALS LTD., priority 2016, dated 2022).
